According to ChEMBL document CHEMBL4813961, “Antiviral Bafilomycins from a Feces-Inhabiting Streptomyces sp” (J Nat Prod, 2021):
The source made the active and inactive calls. No cut-off for these calls is given here.

Key:
[1] = Cytotoxicity against dog MDCK cells incubated for 48 hrs by MTT assay; format: cell-based, Canis lupus familiaris
Influenza A virus [2] = assay: Antiviral activity against Influenza A virus (A/Puerto Rico/8/1934(H1N1)) infected in MDCK cells pre-treated with virus for 30 mins followed by cell infection for 1 hr by MTT assay; format: functional, organism-based
MDCK = assay: Inhibition of V-ATPase in dog MDCK cells assessed as decrease in fluorescence intensity at 5 uM incubated for 20 mins by acridine orange staining-based fluorescence quenching method (reference value: 100%); format: cell-based; details: Canis lupus familiaris
Influenza A virus [3] = assay: Antiviral activity against Influenza A virus (A/Puerto Rico/8/1934(H1N1)) infected in MDCK cells incubated for 48 hrs by MTT assay; format: functional, organism-based
Influenza A virus [4] = assay: Antiviral activity against Influenza A virus (A/Puerto Rico/8/34(H1N1)) infected in MDCK cells assessed as reduction in NP expression level at 0.5 to 1 ng/ml pre-treated with virus for 30 mins followed by cell infection for 1 hr and measured after 24 hrs post infection by indirect immunofluorescence assay; format: functional, organism-based; details: A/Puerto Rico/8/1934(H1N1), dose 0.5-1 ng/ml, time 1470.0 min
Influenza A virus [5] = assay: Antiviral activity against Influenza A virus (A/Puerto Rico/8/34(H1N1)) infected in MDCK cells assessed as reduction in HA mRNA level at 1 ng/ml pre-treated with virus for 30 mins followed by cell infection for 1 hr and measured after 24 hrs post infection by SYBR green dye-based qRT-PCR analysis; format: functional, organism-based; details: A/Puerto Rico/8/1934(H1N1), time 1470.0 min
Influenza A virus [6] = assay: Antiviral activity against Influenza A virus (A/Puerto Rico/8/34(H1N1)) infected in MDCK cells assessed as reduction in M1 mRNA level at 1 ng/ml pre-treated with virus for 30 mins followed by cell infection for 1 hr and measured after 24 hrs post infection by SYBR green dye-based qRT-PCR analysis; format: functional, organism-based; details: A/Puerto Rico/8/1934(H1N1), time 1470.0 min
SARS-CoV-2 [7] = assay: Antiviral activity against SARS-CoV-2 nCoV-2019 BetaCoV/Wuhan/WIV04/2019 infected in Vero E6 cells assessed as reduction in NP expression at 0.005 to 0.5 ug/ml preincubated with cells for 1 hr followed by viral addition for 1 hr and measured at 24 hrs post infection by indirect immunofluorescence assay; format: functional, organism-based; details: Severe acute respiratory syndrome coronavirus 2, dose 0.005-0.5 µg/ml, time 26.0 hrs
SARS-CoV-2 [8] = assay: Antiviral activity against SARS-CoV-2 nCoV-2019 BetaCoV/Wuhan/WIV04/2019 infected in Vero E6 cells assessed as S gene expression preincubated with virus for 30 mins followed by cell infection for 1 hr and measured at 24 hrs post infection by qRT-PCR method; format: functional, organism-based; details: Severe acute respiratory syndrome coronavirus 2, nCoV-2019 BetaCoV/Wuhan/WIV04/2019, Vero C1008
SARS-CoV-2 [9] = assay: Antiviral activity against SARS-CoV-2 nCoV-2019 BetaCoV/Wuhan/WIV04/2019 infected in Vero E6 cells assessed as S gene expression preincubated with cells for 1 hr followed by viral addition for 1 hr and measured at 24 hrs post infection by qRT-PCR method; format: functional, organism-based; details: Severe acute respiratory syndrome coronavirus 2, nCoV-2019 BetaCoV/Wuhan/WIV04/2019, Vero C1008

Row | SMILES | CC50 at 48 h [1] | IC50 (Influenza A virus [2]) | Flu intensity (MDCK) | IC50 (Influenza A virus [3]) | Activity (Influenza A virus [4]) | Activity (Influenza A virus [5]) | Activity (Influenza A virus [6]) | Activity (SARS-CoV-2 [7]) | IC50 (SARS-CoV-2 [8]) | IC50 (SARS-CoV-2 [9])
1 | CO/C1=C/C(C)=C/[C@@H](C)[C@H](O)[C@@H](C)C/C(C)=C/C=C/[C@H](OC)[C@@H]([C@@H](C)[C@@H](O)[C@H](C)[C@]2(OC)C[C@H](O)[C@@H](C)[C@H](C(C)C)O2)OC1=O | 1710 nM | 0.11 nM | 88.7% | 170 nM |  |  |  |  |  | 
2 | CO/C1=C/C(C)=C/[C@@H](C)[C@H](O)[C@@H](C)C/C(C)=C/C=C/[C@H](OC)[C@@H]([C@@H](C)[C@@H](O)[C@H](C)[C@]2(O)C[C@H](OC(=O)/C=C/C(=O)NC3=C(O)CCC3=O)[C@@H](C)[C@H](C(C)C)O2)OC1=O | 1310 nM | 0.17 nM | 78.4% | 100 nM | Active | Active | Active |  |  | 
3 | CCOC(=O)c1c(CSc2ccccc2)n(C)c2cc(Br)c(O)c(CN(C)C)c12 [UMIFENOVIR] | 46400 nM | 400 nM |  | 460 nM |  |  |  |  |  | 
4 | CO/C1=C/C(C)=C/[C@@H](C)[C@H](O)[C@@H](C)C/C(C)=C/C=C/[C@H](OC)[C@@H]([C@@H](C)[C@@H](O)[C@H](C)[C@]2(O)C[C@H](OC)[C@@H](C)[C@H](C(C)C)O2)OC1=O | 190 nM | 0.65 nM |  | 140 nM |  |  |  |  |  | 
5 | CO/C1=C/C(C)=C/[C@@H](C)[C@H](O)[C@@H](C)C/C(C)=C/C=C/[C@H](OC)[C@@H]([C@@H](C)[C@@H](O)[C@H](C)C(=O)/C=C/C(C)=C/C(C)C)OC1=O | 3100 nM | 2.13 nM | 93.5% | 460 nM |  |  |  |  |  | 
6 | CO/C1=C/C(C)=C/[C@@H](C)[C@H](O)[C@@H](C)C/C(C)=C/C=C/[C@H](OC)[C@@H]([C@@H](C)[C@@H](O)[C@H](C)[C@]2(OC)C[C@H](OC(=O)/C=C/C(=O)NC3=C(O)CCC3=O)[C@@H](C)[C@H](C(C)C)O2)OC1=O | 240 nM | 0.1 nM | 73.6% | 50 nM | Active | Active | Active | Active | 8.32 nM | 5.11 nM
7 | CO/C1=C/C(C)=C/[C@@H](C)[C@H](O)[C@@H](C)C/C(C)=C/C=C/[C@H](OC)[C@@H]([C@@H](C)[C@@H](O)[C@H](C)[C@]2(OC)C[C@H](OC)[C@@H](C)[C@H](C(C)C)O2)OC1=O | 1290 nM | 0.18 nM |  | 260 nM |  |  |  |  |  | 
8 | CO/C1=C/C(C)=C/[C@@H](C)[C@H](O)[C@@H](C)C/C(C)=C/C=C/[C@H](OC)[C@@H]([C@@H](C)[C@@H](O)[C@H](C)C(=O)/C=C/[C@H](C)[C@H](O)C(C)C)OC1=O | 910 nM | 0.1 nM | 82.7% | 30 nM |  |  |  |  |  | 
9 | CO/C1=C\C(C)=C\[C@@H](C)[C@@H](O)[C@@H](C)C/C(C)=C/C=C/[C@H](OC)[C@@H]([C@@H](C)[C@@H](O)[C@H](C)[C@@]2(O)C[C@@H](O)[C@H](C)[C@@H](C(C)C)O2)OC1=O [BAFILOMYCIN A1] | 1410 nM | 0.06 nM | 85.3% | 580 nM |  |  |  |  |  | 
